Where only a bound is given, the exact number is not on record here.

The compound `O=C(O)Cc1c(C(=O)c2ccccc2)[nH]c2cc(Cl)c(Cl)cc12` returned a melting point of 206 to 210 °C.

With `CN1C(=O)C(c2ccc(OC(F)F)cc2)(c2cccc(C#CCCO)c2)N=C1N` (configuration not stated), the melting point lay within 90 to 93 °C.

`O=C(OCC1CCCC1)c1ncn2c1[C@@H]1CCCN1C(=O)c1c(Cl)cccc1-2`: the melting point lay in the range of 112 to 114 °C.

Consider `CCCCCCCCCCN(CCC12CC3CC(CC(C3)C1)C2)C(=O)NCCCc1ccncc1`, for which the melting point fell in the range of 75 to 76 °C.

In turn, `O=C1C[C@@H](O)C[C@H](/C=C/c2ccccc2)O1` (relative stereo) returned a melting point of 94 to 95 °C.

Turning to `CCOP(=O)(OCC)C(CNc1nc(C)cc(Oc2ccc(Cl)cc2Cl)n1)P(=O)(OCC)OCC`, the melting point was in the range of 76 to 77 °C.

The compound `CCCCC(CC)COc1ccc(-c2c3ccc(O)cc3c(-c3ccc(OCC(CC)CCCC)cc3)c3ccc(O)cc23)cc1` (configuration not stated) displayed a melting point of 195 to 197 °C.

The compound `COc1ccc(CC(=O)O)c(C(C)=O)c1` showed a melting point of 115 to 116 °C.

As for `CC(=O)OC(C)(C)C(=O)Nc1c(C(=O)c2ccccc2)[nH]c2cc(Cl)ccc12`, the melting point fell in the range of 162 to 165 °C.

In turn, `N#Cc1cccc(-c2ccc3c(c2)NC(=O)CO3)c1` yielded a melting point of 242 °C.

`O=c1[nH]cc(-c2ccccc2)c2ncccc12` returned a melting point of 260 to 263 °C.

As for `CC(NC(=O)NC1N=C(c2ccccc2)c2ccccc2N(C)C1=O)c1ccccc1` (configuration not stated), the melting point was in the range of 146 to 150 °C.

Compound `CS(=O)(=O)N1CCCC(Nc2nccc(-n3nnc4ccccc43)n2)C1` (configuration not stated) showed a melting point of 196 to 197 °C.

On to `NS(=O)(=O)c1ccc(N2CCN(Cc3cn4cc(Cl)ccc4n3)CC2)cc1`, for which the melting point lay in the range of 255 to 256 °C.

Consider `Cc1cc(C(=O)c2[nH]c3cc(Cl)ccc3c2N)ccc1Cl`, for which the melting point was in the range of 142 to 143 °C.

As to `Cc1cccc(C(=O)NO)c1N(C)S(=O)(=O)c1ccc(OCCCNC(=O)c2cc3ccccc3[nH]2)cc1`, the melting point lay within 144 to 146 °C.

As to `CCCCCCCCCCCCP(=O)(O)CCCN`, the melting point was in the range of 175 to 177 °C.

`CN(C)C(c1cccc(F)c1)C1CCC(=O)CC1` (configuration not stated) gave a melting point of 72 to 75 °C.

In the case of `CCCCc1nc(Cl)c(CC#N)n1Cc1ccc([N+](=O)[O-])cc1`, the melting point was in the range of 118 to 121 °C.

Consider `NC(=O)Cc1ccc2[nH]cc(CCNC(=O)OCc3ccccc3)c2c1`, for which the melting point lay in the range of 124 to 125 °C.

As to `ON=Cc1ccc(-c2ccc(O)c(F)c2)c2ccccc12`, the melting point is 187 to 188 °C.

In the case of `O=C1c2ccc(Cl)cc2CC1Br` (configuration not stated), the melting point fell in the range of 69 to 76 °C.

`CCn1ncc(C(=O)c2ccc(S(C)(=O)=O)c(C3=NOCC3)c2Cl)c1OCc1ccccc1` showed a melting point of 70 to 75 °C.

As to `CCOC(=O)c1cccn2cc(C(F)(F)F)nc12`, the melting point lay in the range of 108 to 110 °C.

`CCCCCCCCCCc1sc(NC(=O)Nc2c(C(C)C)cccc2C(C)C)nc1C` returned a melting point of 101 to 108 °C.

In turn, `O=C(OC1CCCCC1)c1ncn2c1[C@@H]1CCCN1C(=O)c1c(I)cccc1-2` had a melting point of 181 to 182 °C.

With `CCCCCC(C)C(C)c1cc(O)c(CN2CCN(C)CC2)c(O)c1` (configuration not stated), the melting point lay within 129 to 133 °C.

In turn, `N#Cc1ccc(N2C(=O)C3C(F)CCN3C2=O)c2ccccc12` (configuration not stated) came in with a melting point of 228 to 230 °C.

Regarding `O=C(O)c1sc2ccc3c(c2c1Cl)O[C@@H](CO)CO3`, the melting point fell in the range of 236 to 237 °C.

On to `Cn1cc(-c2cc(-c3cnc4ccccc4c3)ccn2)n(-c2ccc(C(C)(C)C#N)cc2)c1=O`, for which the melting point stood at 180 °C.

`CC(=O)c1ccc(C=C(C)c2ccc3c(c2)C(C)(C)CCO3)cc1` registered a melting point of 109 to 110 °C.

`CCc1c(OC)cc(C2CN(C)CCC2=O)cc1OC` (configuration not stated): the melting point is 84 to 85 °C.

On to `CC(=O)OC[C@H]1[C@H](O)[C@@H](O)[C@@H](O)[C@@H]2NC(=O)c3cc4c(cc3[C@@H]12)OCO4`, for which the melting point is > 200 °C.

Consider `Cc1nn(-c2ccc(F)cc2)cc1C(=O)Nc1ccc(N2CCC(O)CC2)c(C#N)c1`, for which the melting point fell in the range of 224 to 225 °C.

`O=C(O)c1cc(=O)cc(-c2ccc(OCc3ccccc3)cc2)o1` registered a melting point of 235 °C.

`CCc1nc(N)nc(N)c1N1CCNCC1` gave a melting point of 204 to 207 °C.

`O=C1Nc2ccc(Br)cc2C2(CCCC2)O1` displayed a melting point of 180 to 185 °C.

As for `CN(C)S(=O)(=O)c1cc(-c2csc(=Nc3ccccc3)n2C2CC2)ccc1Cl`, the melting point was 156 to 159 °C.

With `CN1CCN(c2ccc(C(=O)N[C@H]3CC[C@H](CCN4CCN(c5nccc6c5CCO6)CC4)CC3)cc2)CC1`, the melting point amounted to 236 °C.

With `N#Cc1cccc(CCn2ncc3c(=O)n(-c4ccccc4)c4ncccc4c32)c1`, the melting point was 220 to 224 °C.

`CS(=O)CCN1CCC2(CC1)CC(=O)c1cc(NS(C)(=O)=O)ccc1O2` (configuration not stated): the melting point lay within 181 to 183 °C.

Compound `O=C(Nc1ccc(OC(F)(F)F)cc1)NC1CCN(C(=O)CN2CCNCC2)CC1` came in with a melting point of 111 to 122 °C.

On to `Cc1ccnc(N2CCN(CCC3Cn4c(-c5ccc(O)cc5)c(C)c5cccc(c54)O3)CC2)c1` (configuration not stated), for which the melting point fell in the range of 213 to 214 °C.

For `Oc1ccc(C2(O)CCC3CN(Cc4ccccc4)CCC3C2)cc1` (configuration not stated), the melting point was 108 to 109 °C.

The compound `CC(=O)N1CCc2ccc(S(=O)(=O)n3c(CCCC(=O)O)cc4cc(Cl)ccc43)cc2C1` returned a melting point of 95 to 97 °C.

Regarding `Cc1cc(C)c2ncc(NC(=O)Cc3cc(C(C)(C)C)c(O)c(C(C)(C)C)c3)c(-c3ccccc3Cl)c2c1`, the melting point was in the range of 189 to 190 °C.

Turning to `Cc1nc(N(C)C)nc(N)c1-c1cc(Cl)cc(Cl)c1Cl`, the melting point was 151 to 153 °C.

`Oc1ccc(Sc2nnc3cc(Cl)ccc3n2)cc1`: the melting point was found to be 238 °C.

For the compound `Cc1ccc(S(=O)(=O)N2CC3C(C2)C3Nc2ncc3cc(-c4ccccc4Cl)c(=O)n(C4CC4)c3n2)cc1` (configuration not stated), the melting point is 265 to 274 °C.

`COc1cc2c(cc1O)C(O)CN(Cc1cc(OC)c(OC)c(OC)c1)C2` (configuration not stated) came in with a melting point of 62 to 63 °C.

`CCCCOC(=O)C(OC(=O)C(C)C)OC(=O)N1CCN(c2cc3c(cc2F)c(=O)c(C(=O)O)cn3CC)CC1` (configuration not stated) gave a melting point of 152 to 160 °C.

Compound `CS(=O)(=O)Oc1cccc(N2CCN(CCCCCC(=O)N3Cc4ccccc4C3)CC2)c1` showed a melting point of 141 °C.

For `Cc1c(SCCCSc2ncccn2)ccnc1CNc1cnc2ccccc2c1`, the melting point is 132 to 133 °C.

On to `Fc1cccc(Nc2nc(Cl)nc3nc[nH]c23)c1`, for which the melting point is > 250 °C.

With `CNc1nc(Cl)c(OC(F)F)c(OC)n1`, the melting point was in the range of 49 to 53 °C.

With `COc1cccc(CN2CCC(N3C(=O)Nc4ccccc4C3c3cccc(O)c3)CC2)c1` (configuration not stated), the melting point is > 250 °C.

In turn, `CCCCc1nc(SC)c(C(=O)OCC)n1Cc1cccc(-c2ccccc2S(=O)(=O)NC#N)c1` showed a melting point of 118 °C.

`CCCCCCNC1=NS(=O)(=O)c2sc(Cl)cc2N1` showed a melting point of 207 to 209 °C.

Regarding `Cc1nc2ccc3cnc(N(C)c4cccc([N+](=O)[O-])c4)nc3c2s1`, the melting point fell in the range of 209 to 210 °C.

On to `COc1cc(COc2cc(CCc3ccccn3)n(-c3ccccc3)n2)ccc1OCc1nc(-c2ccco2)oc1C`, for which the melting point lay in the range of 104 to 105 °C.

`CC1CN(c2cc3ccccc3c(=O)[nH]2)CC(C)N1` (configuration not stated) had a melting point of 208 to 210 °C.

For the compound `O=C(Nc1cccc(SC(F)(F)F)c1)c1ccc2ccccc2c1O`, the melting point is 154 °C.

Turning to `COC(CCSCC=O)=NNS(=O)(=O)c1ccc(C)cc1`, the melting point fell in the range of 94 to 96 °C.

Take `CCCCCc1c(C(C)C)nc(C(C)C)c(CO)c1-c1ccc(OC)cc1`: the melting point lay within 47 to 49 °C.

As to `CN1C(=O)CC(c2ccc(-c3ccc(F)cc3)cc2)C1C(O)c1ccc(-c2ccccc2)s1` (configuration not stated), the melting point was 191 to 193 °C.

In turn, `Clc1ccc(C2CCN(Cc3cncc(-c4ccccc4)c3)CC2)cc1` came in with a melting point of 142 to 143 °C.

`CC(C)(C)CC(=O)c1c(-c2ccc3cc(OCC(=O)O)ccc3c2)oc2ccccc12` gave a melting point of 207 to 209 °C.

The compound `COc1cc(OC)n2nc(N)nc2n1` yielded a melting point of 215 to 220 °C.

Take `CC(COc1ccc(CC(=O)O)cc1Cl)NCC(O)c1cccc(Cl)c1` (configuration not stated): the melting point was 188 to 192 °C.

For the compound `COc1ccc(-c2nc(Cl)sc2-c2ccc(OC)cc2)cc1`, the melting point fell in the range of 92 to 94 °C.

The compound `CCOC(=O)CCCn1cc(C(=O)c2ccc(OCc3ccc(C)cc3)c(O)c2)c2ccccc21` registered a melting point of 125 to 127 °C.

Take `O=Cc1scc2c1-c1cccc3cccc-2c13`: the melting point lay in the range of 123 to 126 °C.

Compound `Nc1cccc(-c2ccc(CCN3CCN(c4nc(-c5ccccc5)cs4)CC3)cc2)n1` showed a melting point of 158 to 161 °C.

For `CN1CC(=O)NC1=NC(=O)Nc1cccc([N+](=O)[O-])c1`, the melting point fell in the range of 182 to 188 °C.

As for `CC(=O)C1(C)COC(c2ccc([N+](=O)[O-])cc2)OC1` (configuration not stated), the melting point lay in the range of 101 to 102 °C.

With `CC(C)(/C=C/Br)C(=O)O`, the melting point worked out at 30 °C.

`N#CC(C(=O)Nc1ccc(Cl)cc1)C(=O)c1ccc[nH]1` (configuration not stated) returned a melting point of 219 to 221 °C.

In turn, `NC(=O)Cc1ccccc1Cn1ccc(OCc2ccc(F)cc2F)c(Br)c1=O` showed a melting point of 178 to 183 °C.

Compound `CN(C)C(=N[N+](=O)[O-])N(C)Cc1cnc(Cl)s1` registered a melting point of 101 to 102 °C.

Compound `CC(CO)c1ccc(O)c(Cc2ccccc2O)c1` (configuration not stated) registered a melting point of 86 to 89 °C.

Consider `COc1ccc(C(=O)CCC(=O)O)c2c1OC(C)(C)C2`, for which the melting point was in the range of 125 to 126 °C.

In turn, `CN(C)CC1CCc2[nH]c3c(c2C1=O)CCC3` (configuration not stated) showed a melting point of 164 to 165 °C.

On to `C[C@@H](NC(=O)c1c[nH]c2ncc(-c3nn(C)c4cc(Cl)ccc34)nc12)C(=O)N1CC(F)C1`, for which the melting point was in the range of 257 to 260 °C.

The compound `O=C1CC(c2ccccc2)c2cc(C(c3ccc(Cl)cc3)n3ccnc3)ccc2N1` (configuration not stated) came in with a melting point of 225 °C.

In turn, `C[C@@](O)(C(=O)Nc1ccc(S(=O)(=O)c2ccccc2)cc1F)C(F)(F)F` came in with a melting point of 121 to 122 °C.

`CC(=O)NCc1ccc(CN2CCN(c3cnccn3)CC2)cc1` yielded a melting point of 118 to 119 °C.

In turn, `Cc1nc(-n2cc(CCCc3ccccc3)nn2)sc1C(=O)NCc1ccccc1` had a melting point of 94 to 97 °C.

The values are drawn from a melting point compilation (Tetko et al.; mined from patent text by program, amines drawn as free bases though some values may be those of a salt).
